# Test results published in patent US20250123268A1, “COMPOSITIONS AND METHODS FOR ACCELERATING DEVELOPMENT OF CANCER THERAPEUTICS” (NetNoids Rx Laboratories, LLC, priority 2023, published 2025).
# Entries after “also recorded” stand apart in the source; their conditions may differ.
# What was measured:
# TNBC-1 = assay: COMPASS C1/C3a/C3c drug regimen testing, TNBC-1 tumor volume; type: cell-based, human; settings: for tumor volume (efficacy): 50 nM & 500 nM
# Protocol: Methods: COMPASS Platforms for TIME Modeling for Drug Regimen Testing: I.A. C1/C3a/C3c for TNBC-1 against 1) Doxorubicin 50 nM & 500 nM (Control: DMSO 0.01%), 2) Sacituzumab 5 nM & 20 nM [Control: PBS 0.01%] via continuous treatment w/initial administration at post-seeding Day 1; I.B. C2/C3b/C3d for GBC-1 against 1) Gemcitabine+Cisplatin 1 μM & 10 μM (G+C 7:1 ratio) (Control: DMSO 0.03%) 2) Gemcitabine+Cisplatin 1 μM+Durvalumab 0.1 nM; Gemcitabine+Cisplatin 10 μM+Durvalumab 1 nM (Control: DMSO 0.03%) (G+C 7:1 ratio) via continuous treatment w/initial administration at post-seeding Day 3; II. C1/C3b/C3d for HUAS-1 against 1) HSP90i 50 nM & 100 nM, (Control: DMSO 0.01-0.5%), 2) HSP90i 50 nM+Doxorubicin 50 nM & HSP90i 100 nM+Doxorubicin 50 nM, (Control: DMSO 0.01-0.5%) via continuous treatment w/initial administration at post-seeding Day 3; • Experimental Set-Up: Series (C1/C2) & representative parallel experimentation (C3), n=3 per group; • Evaluation: Imaging—Phase Contrast Imaging via Biotek Cytation 5 (Agilent) with partial well plug for object selection ([…] for C1/C2 & […] for C3) towards tumor volume analysis at Timepoints Day 3 and Day 7/10; • Statistics: One-way ANOVA followed by Tukey's pairwise comparison, n=3, (p<0.05).
# FIGS. 28A-L: Common Cancers (TNBC and GBC) vs Established Drug Regimens (Doxorubicin/Sacituzumab and Gemcitabine+Cisplatin+/−Durvalumab, respectively) treatment profiles across progressing, appropriately-matched COMPASS Platforms at Day 3 and Day 10 Timepoints. Compass 1 is used for small molecules. Compass 2 is used in studies when Durvalumab (which is an anti-PDL 1 inhibitor) is added and it works by using the immune system (checkpoint inhibitor), which makes the immune system […]. Sub-studies highlighting the versatility of COMPASS platforms in the generation of specific Tumor-Immune-Microenvironment Models—designed appropriately for intended drug mechanism testing of already clinically-approved treatment regimens. […]
# [1] = system: PDL-1 positive PDT of TNBC; assay: PDL-1 positive TNBC PDT tumor volume, anti-PD1 treatment, with/without PBMCs (COMPASS 2); type: cell-based, human; settings: same model without the addition of PBMCs
# Protocol: All experiments were conducted with n=3 replicates and data was analyzed by One Way ANOVA followed by student's t-test to check for statistical significance.
compound,measurement,setting,value
Sacituzumab,tumor volume vs control,"TNBC-1; 5 nM & 20 nM, supplemental structural matrix & oxygenation (C3c), p=0.04",revealed efficacy in oxygenated conditions; also recorded: tumor volume reduction vs control
COc1cccc2c1C(=O)c1c(O)c3c(c(O)c1C2=O)C[C@@](O)(C(=O)CO)C[C@@H]3O[C@H]1C[C@H](N)[C@H](O)[C@H](C)O1 [Doxorubicin],tumor volume (efficacy),TNBC-1; C1 model,slight efficacy
same,tumor volume (efficacy),TNBC-1; C3 models,potential resistance
Pembrolizumab [anti-PD1 inhibitor],immune checkpoint mediated reduction in tumor volume,[1],not observed
